± gives the expanded uncertainty stated by the source.
Assay: xn = mol fraction of the nth substance listed
Details: Vibrating tube method

With `O=S=O` [sulfur dioxide] + O=C=O the mass density (298.1 K, 34441 kPa, Liquid, x2 = 0.9478) was 1013.3 ± 0.6 kg/m3, the mass density (298.1 K, 35077 kPa, Liquid, x2 = 0.9478) was 1015.5 ± 0.4 kg/m3 and the mass density (298.1 K, 35971 kPa, Liquid, x2 = 0.9478) was 1018.4 ± 0.4 kg/m3. It also gave a mass density (298.1 K, 36493 kPa, Liquid, x2 = 0.9478) of 1020.2 ± 0.6 kg/m3, a mass density (298.1 K, 37078 kPa, Liquid, x2 = 0.9478) of 1022 ± 0.4 kg/m3 and a mass density (298.11 K, 7503 kPa, Liquid, x2 = 0.9478) of 829.8 ± 1.6 kg/m3. For the same compound, the mass density (298.11 K, 8006 kPa, Liquid, x2 = 0.9478) was 838.7 ± 1.6 kg/m3, the mass density (298.11 K, 8501 kPa, Liquid, x2 = 0.9478) was 846.7 ± 1.4 kg/m3 and the mass density (298.11 K, 10505 kPa, Liquid, x2 = 0.9478) was 872.1 ± 1.2 kg/m3. For the same compound, the mass density (298.11 K, 11004 kPa, Liquid, x2 = 0.9478) was 877.7 ± 1.2 kg/m3, the mass density (298.11 K, 13010 kPa, Liquid, x2 = 0.9478) was 897.8 ± 1 kg/m3 and the mass density (298.11 K, 13500 kPa, Liquid, x2 = 0.9478) was 902.3 ± 1 kg/m3. It also gave a mass density (298.11 K, 15011 kPa, Liquid, x2 = 0.9478) of 915.2 ± 0.8 kg/m3, a mass density (298.11 K, 15500 kPa, Liquid, x2 = 0.9478) of 919.1 ± 0.8 kg/m3 and a mass density (298.11 K, 16016 kPa, Liquid, x2 = 0.9478) of 923 ± 0.8 kg/m3. It also gave a mass density (298.11 K, 16534 kPa, Liquid, x2 = 0.9478) of 926.8 ± 0.8 kg/m3, a mass density (298.11 K, 17024 kPa, Liquid, x2 = 0.9478) of 930.2 ± 0.8 kg/m3 and a mass density (298.11 K, 17492 kPa, Liquid, x2 = 0.9478) of 933.3 ± 0.8 kg/m3. The mass density (298.11 K, 17978 kPa, Liquid, x2 = 0.9478) was 936.5 ± 0.8 kg/m3, the mass density (298.11 K, 18527 kPa, Liquid, x2 = 0.9478) was 939.8 ± 0.8 kg/m3 and the mass density (298.11 K, 19025 kPa, Liquid, x2 = 0.9478) was 942.9 ± 0.8 kg/m3. For the same compound, the mass density (298.11 K, 19477 kPa, Liquid, x2 = 0.9478) was 945.6 ± 0.8 kg/m3, the mass density (298.11 K, 20051 kPa, Liquid, x2 = 0.9478) was 948.9 ± 0.8 kg/m3 and the mass density (298.11 K, 20492 kPa, Liquid, x2 = 0.9478) was 951.5 ± 0.8 kg/m3. The mass density (298.11 K, 21501 kPa, Liquid, x2 = 0.9478) was 957 ± 0.6 kg/m3, the mass density (298.11 K, 23041 kPa, Liquid, x2 = 0.9478) was 965.2 ± 0.6 kg/m3 and the mass density (298.11 K, 28987 kPa, Liquid, x2 = 0.9478) was 993.1 ± 0.6 kg/m3. The mass density (298.11 K, 29543 kPa, Liquid, x2 = 0.9478) was 994.8 ± 0.6 kg/m3, the mass density (298.11 K, 30013 kPa, Liquid, x2 = 0.9478) was 996.8 ± 0.6 kg/m3 and the mass density (298.11 K, 30505 kPa, Liquid, x2 = 0.9478) was 998.9 ± 0.6 kg/m3. It also gave a mass density (298.11 K, 30997 kPa, Liquid, x2 = 0.9478) of 1000.7 ± 0.4 kg/m3, a mass density (298.11 K, 31516 kPa, Liquid, x2 = 0.9478) of 1002.6 ± 0.4 kg/m3 and a mass density (298.11 K, 33949 kPa, Liquid, x2 = 0.9478) of 1011.6 ± 0.4 kg/m3. The mass density (298.11 K, 35494 kPa, Liquid, x2 = 0.9478) was 1016.9 ± 0.4 kg/m3, the mass density (298.11 K, 37574 kPa, Liquid, x2 = 0.9478) was 1023.6 ± 0.4 kg/m3 and the mass density (298.11 K, 37960 kPa, Liquid, x2 = 0.9478) was 1024.8 ± 0.4 kg/m3. The mass density (298.11 K, 38545 kPa, Liquid, x2 = 0.9478) was 1026.6 ± 0.6 kg/m3, the mass density (298.11 K, 38913 kPa, Liquid, x2 = 0.9478) was 1027.8 ± 0.6 kg/m3 and the mass density (298.11 K, 39519 kPa, Liquid, x2 = 0.9478) was 1029.5 ± 0.4 kg/m3. It also gave a mass density (298.11 K, 40060 kPa, Liquid, x2 = 0.9478) of 1031.1 ± 0.6 kg/m3, a mass density (298.12 K, 9508 kPa, Liquid, x2 = 0.9478) of 860.5 ± 1.2 kg/m3 and a mass density (298.12 K, 10039 kPa, Liquid, x2 = 0.9478) of 866.6 ± 1.2 kg/m3. For the same compound, the mass density (298.12 K, 11504 kPa, Liquid, x2 = 0.9478) was 882.9 ± 1 kg/m3, the mass density (298.12 K, 12000 kPa, Liquid, x2 = 0.9478) was 887.9 ± 1 kg/m3 and the mass density (298.12 K, 12503 kPa, Liquid, x2 = 0.9478) was 892.9 ± 1 kg/m3. The mass density (298.12 K, 14006 kPa, Liquid, x2 = 0.9478) was 906.7 ± 1 kg/m3, the mass density (298.12 K, 14500 kPa, Liquid, x2 = 0.9478) was 910.9 ± 1 kg/m3 and the mass density (298.12 K, 40411 kPa, Liquid, x2 = 0.9478) was 1032.1 ± 0.4 kg/m3. For the same compound, the mass density (322.39 K, 392 kPa, Gas, x2 = 0.9503) was 7 ± 0.2 kg/m3, the mass density (322.39 K, 1252 kPa, Gas, x2 = 0.9503) was 22.2 ± 0.2 kg/m3 and the mass density (322.39 K, 1707 kPa, Gas, x2 = 0.9503) was 31.7 ± 0.2 kg/m3. For the same compound, the mass density (322.39 K, 2008 kPa, Gas, x2 = 0.9503) was 37 ± 0.2 kg/m3, the mass density (322.39 K, 3512 kPa, Gas, x2 = 0.9503) was 70.9 ± 0.2 kg/m3 and the mass density (322.39 K, 4009 kPa, Gas, x2 = 0.9503) was 82.8 ± 0.4 kg/m3. The mass density (322.39 K, 4519 kPa, Gas, x2 = 0.9503) was 96.9 ± 0.4 kg/m3.

Source: the NIST ThermoML archive (doi:10.1016/j.fluid.2017.09.014)
